The text below walks through data of US20260265280A1, “Prevention/Treatment of Ischemic Reperfusion Injury” (Rev Therapeutics, priority 2023, published 2026).

Values after ≈ are worked out from the molar mass of the structure shown. Values joined by “and” are separate entries in the source; they are usually repeats but may differ in a detail not shown here. Identical values can stand only once. Marks after values point to notes of the source that are not given here.

A short description of data set [1]: Thermodynamic solubility assay (shake flask, HPLC-UV) in PBS. The note with it: for solubility thermodynamic at 24 h: 25 °C, aqueous buffer, thermodynamic from solid. It is filed as physicochemical. The procedure:
Solubility Study: The thermodynamic solubility assay employed was the shake flask method followed by HPLC analysis. The method prepared a saturated solution of the compound, followed by an assay of the solution using HPLC and UV detection. […] About 18 mg compound powder was weighed and placed in a 2 mL glass vial, then PBS buffer was introduced into the vial to obtain a 30-60 mg/mL target concentration. This solution was vortexed for 2 minutes. The solutions were incubated and shook on an orbital shaker for 24 hr at room temperature (25±2° C.). About 500 μL solubility solution was transferred into a new MultiScreen filter plate (Membrane of polycarbonate), filtered by millipore vacuum manifold, and collected in the filtrate as the TS solution. The filtrate was diluted with PBS buffer by a factor of 20 fold to make it diluent. Three UV standard solutions (20, 200, 2000 μg/mL) were injected into HPLC from low to high concentration, followed by testing of the diluent. Testing samples were injected in duplicate. The filtrate was analyzed by HPLC equipped with UV, and the solubility was calculated based on acquired peak areas and dilution factors with a standard external method.

For data set [2], the system named is kidney ischemia-reperfusion injury. The data set can be described thus: Rat bilateral short-warm kidney ischemia-reperfusion injury (IRI / AKI) system. The settings on record: oral 103 mg/kg. Type of data set: in vivo, Male outbred Sprague-Dawley rats. The procedure: Brief description of AKI Study: The study examined rats given oral compound Q8 three times at −1 hour, +10 hours, and 24 h post-lesion, or nine times over four days, at −1 hr, +10 hours and every morning and evening. The dose chosen was 103 mg/kg (0.134 mmol/kg). Control groups include a sham operation group receiving drug vehicle, peritoneum open but no ligature application to the kidney artery. A vehicle group in which the artery ligature was applied served as the lesion group. […] This chosen amount is also between the IC95 and the IC50 inhibition of Jnk activity in cell extracts and human PBMCs (Krenitsky et al. Bioorganic & Medicinal Chemistry Letters, 22(3), pp. 1433-1438). It is also similar to the oral Cavg exposure of compound Z at 60 mg/kg, which is an effective dose of compound Z in rat models of AKI (Grynberg et al. Am J Pathol 191:817-828, 2021).
Rat bilateral short-warm kidney ischemia-reperfusion injury (“IRI”) system: Male outbred Sprague-Dawley rats (approximately 300 g from the Monash Animal Research Platform), six/group, were anesthetized using ketamine/xylazine, and surgery performed with both renal pedicles clamped for 25 minutes (ischemia) then released (reperfusion) as previously described (Grynberg et al. Am J Pathol 191:817-828, 2021). […]
Staining used rabbit monoclonal antibodies recognizing collagen I (E8F4L, 1 in 400 dilutions; Cell Signaling Technology, Danvers, MA, USA), followed by biotinylated […] (BA-400, 1 in 500 dilutions; Thermo Fisher, Waltham, MA, USA), and the VECTASTAIN® Elite® ABC-HRP Kit (PK-6100). The interstitial collagen I deposition area was assessed in the outer medulla and cortex by image analysis, avoiding medium and large arteries, using cellSens software V1.18 (Olympus, Notting Hill, Victoria, Australia) as previously described (Leong et al. Toxins 13:700, 2021). […]
Statistical Analysis: Data are shown as means±1 SD. Data were analyzed by one-way analysis of variance with the Tukey multiple comparison tests using GraphPad Prism 9.0 software (GraphPad Software, San Diego, CA).

Data set [3] is described as follows: In vivo rat pharmacokinetic studies (cleavage of compounds into compound Z). The settings on record: for Compound Z Present in Plasma at 2 hr After i.p. dose: i.p. dose of compound Qx.
Protocol: Rat pharmacokinetic study samples were used for PK characterization. Male Sprague-Dawley rats weighing 150-300 g were intraperitoneal (ip), intravenous (i.v.) dosed formulated in PBS, pH 7.4. The blood samples at several times post dosing were collected and advanced to plasma preparation with K2EDTA as an anticoagulant.
The blank plasma samples used for the PK characterization control were prepared from undosed rat groups. After IV administration, the amount of parent compound remaining at 0.5 hours after dosing was used as a measure of the cleavage rate. After IP administration, the amount of parent compound remaining at 2 hours after dosing was used as a measure of the cleavage rate. We sought compounds with >90% cleavage.
The subject of data set [4] is kidney ischemia-reperfusion injury. The note with it: oral; Grynberg et al.; cited from earlier work.
The next data set concerns cJun phosphorylation. The settings on record: human skin; cited from earlier work.
Setting [5] is: PBS buffer, PBS pH 7.4, shaken 24 hr at room temperature (25±2° C.).
Setting [6] is: PBS pH 7.4, shaken 24 hr at room temperature (25±2° C.).
[7] abbreviates: studied at 1 mg/kg in PBS, linearly scaled to 2 mg/kg equivalent dose.

For the molecule `O=P([O-])([O-])OCn1/c(=N\c2c(F)cc(F)cc2F)n([C@H]2CCOC2)c2nc(NC3CCC(O)CC3)ncc21.[Na+].[Na+]` (stereo partly drawn) [Compound Q8, [[(8Z)-2-[(4-hydroxycyclohexyl)amino]-9-[(3S)-tetrahydrofuran-3-yl]-8-(2,4,6-trifluorophenyl)imino-purin-7-yl]methoxy-sodiooxy-phosphoryl]oxysodium], in data set [1] (PBS), the “improvement in solubility over known compound Z” value was 751 fold. Also, the thermodynamic solubility at 24 h in data set [1] (setting [5]) turned out to be 45600 µg/mL. Also, in data set [2] (D21 post-lesion), the “reduction of fibrosis component Coll histological staining” value stood at 73%. Further, the “reduction of tubular damage” value in data set [2] (Day 7 post-lesion, PAS stained sections, outer medulla) was 65%. Further, the “reduction of serum/plasma creatinine levels (kidney dysfunction)” value in data set [2] (three doses or nine doses over four days, vs. 1D vehicle) is reported as 87-88%. In data set [3] (studied at 29.8 mg/kg in PBS, linearly scaled to 2 mg/kg equivalent dose), the “Compound Qx Present in Plasma at 2 hr After i.p. dose” value is recorded as 12^# ng/mL. The same molecule returned a concentration at 0.5 h in data set [3] (male, Sprague-Dawley, plasma, intravenous, 1 mg/kg) of 21 ng/mL.

In the case of `O=P([O-])([O-])OP(=O)([O-])OC1CCC(Nc2ncc3nc(Nc4c(F)cc(F)cc4F)n([C@H]4CCOC4)c3n2)CC1.[Na+].[Na+].[Na+]` (stereo partly drawn) [Compound Q9, [Disodiooxyphosphoryloxy-[4-[[9-[(3S)-tetrahydrofuran-3-yl]-8-(2,4,6-trifluoroanilino)purin-2-yl]amino]cyclohexoxy]phosphoryl]oxysodium], the thermodynamic solubility at 24 h in data set [1] (setting [6]) was 19400 µg/mL. In data set [3] (studied at 2 mg/kg in PBS), the “Compound Qx Present in Plasma at 2 hr After i.p. dose” value is “BQL”. Also, the “Compound Qx Present in Plasma at 0.5 hr After i.v. dose” value in data set [3] (setting [7]) is “BQL”.

With `CC(=O)O[C@H]1CC[C@H](Nc2ncc3nc(Nc4c(F)cc(F)cc4F)n([C@H]4CCOC4)c3n2)CC1` [Compound Q10, [4-[[9-[(3S)-Tetrahydrofuran-3-yl]-8-(2,4,6-trifluoroanilino)purin-2-yl]amino]cyclohexyl] acetate], the thermodynamic solubility at 24 h in data set [1] (setting [5]) was 75.2 µg/mL.

Turning to `CCOC(=O)n1/c(=N\c2c(F)cc(F)cc2F)n([C@H]2CCOC2)c2nc(N[C@H]3CC[C@H](O)CC3)ncc21` [Compound Q11], the solubility (thermodynamic) at 24 h in data set [1] (setting [5]) was < 20 µg/mL.

In data set [1] (setting [5]), `C[N+](C)(C)CCOC(=O)O[C@H]1CC[C@H](Nc2ncc3nc(Nc4c(F)cc(F)cc4F)n([C@H]4CCOC4)c3n2)CC1` [Compound Q12, trimethyl-[2-[4-[[9-[(3S)-tetrahydrofuran-3-yl]-8-(2,4,6-trifluoroanilino)purin-2-yl]amino]cyclohexoxy]carbonyloxyethyl]ammonium] had a solubility (thermodynamic) at 24 h of 29600 µg/mL. In data set [3] (male, Sprague-Dawley, plasma, ip, 2 mg/kg), this molecule yielded a concentration at 2 h of 214 ng/mL.

As for `CCOC(=O)OC1CCC(Nc2ncc3nc(Nc4c(F)cc(F)cc4F)n([C@H]4CCOC4)c3n2)CC1` (stereo partly drawn) [Compound Q13, Ethyl [4-[[9-[(3S)-tetrahydrofuran-3-yl]-8-(2,4,6-trifluoroanilino)purin-2-yl]amino]cyclohexyl] carbonate], in data set [1] (setting [5]), the solubility (thermodynamic) at 24 h is < 20 µg/mL.

Consider `CN(C)C(=O)O[C@H]1CC[C@H](Nc2ncc3nc(Nc4c(F)cc(F)cc4F)n([C@H]4CCOC4)c3n2)CC1` [Compound Q14, [4-[[9-[(3S)-tetrahydrofuran-3-yl]-8-(2,4,6-trifluoroanilino)purin-2-yl]amino]cyclohexyl] N,N-dimethylcarbamate], for which, in data set [1] (setting [5]), the solubility (thermodynamic) at 24 h is < 20 µg/mL.

Turning to `CC(=O)OCn1/c(=N\c2c(F)cc(F)cc2F)n([C@H]2CCOC2)c2nc(N[C@H]3CC[C@H](O)CC3)ncc21` [Compound Q16, [(8Z)-2-[(4-hydroxycyclohexyl)amino]-9-[(3S)-tetrahydrofuran-3-yl]-8-(2,4,6-trifluorophenyl)imino-purin-7-yl]methyl acetate], the thermodynamic solubility at 24 h in data set [1] (setting [5]) amounted to 114 µg/mL.

Take `O[C@H]1CC[C@H](Nc2ncc3nc(Nc4c(F)cc(F)cc4F)n([C@H]4CCOC4)c3n2)CC1` [Z, 4-[[9-[(3S)-tetrahydrofuran-3-yl]-8-(2,4,6-trifluoroanilino)purin-2-yl]amino]cyclohexanol]: the solubility (thermodynamic) at 24 h in data set [1] (setting [5]) worked out at 60.6 µg/mL (≈ 135 µM). Besides, in data set [4], the “effective dose in rat models of AKI” value is 60 mg/kg. Further, the “plasma concentration that achieved efficacy (suppression of cJun phosphorylation)” value in the data set on cJun phosphorylation was 3.4 uM and 1560 ng/mL.

On to “Trimethyl-[2-oxo-2-[4-[[9-[(3S)-tetrahydrofuran-3-yl]-8-(2,4,6-trifluoroanilino)purin-2-yl]amino]cyclohexoxy]ethyl]ammonium [Compound Q15]”, for which the “Thermodynamic Solubility in PBS” value in data set [1] (setting [6]) came out at 17340 µg/mL. Further, in data set [3] (studied at 2 mg/kg in PBS), the “Compound Z Present in Plasma at 2 hr After i.p. dose” value is recorded as 26.5 ng/mL and the “Compound Qx Present in Plasma at 2 hr After i.p. dose” value worked out at 125 ng/mL.

“[4-[[9-[(3S)-Tetrahydro furan-3-yl]-8-(2,4,6-trifluoroanilino)purin-2-yl]amino]cyclohexyl] disodium phosphate [Compound Q7]”: the “compound still present at 2 hrs post-dosing” value in data set [3] (2 hr post-dosing) was 30%. In data set [3] (studied at 2 mg/kg in PBS), the “Compound Z Present in Plasma at 2 hr After i.p. dose” value worked out at 83.5 ng/mL and the “Compound Qx Present in Plasma at 2 hr After i.p. dose” value was 36 ng/mL. Besides, in data set [3] (i.v. dose of compound Qx, studied at 1 mg/kg in PBS, linearly scaled to 2 mg/kg equivalent dose), the “Compound Z Present in Plasma at 0.5 hr After i.v. dose” value was found to be 232 ng/mL. For the same molecule, the “Compound Qx Present in Plasma at 0.5 hr After i.v. dose” value in data set [3] (setting [7]) amounted to 13 ng/mL.
